# Data published in patent publication US9580449B2, “Compositions and methods for the production of pyrimidine and pyridine compounds with BTK inhibitory activity” (Merck Patent GmbH, priority 2011, dated 2017).
# Molecular target: full-length human BTK (Homo sapiens (Human), UniProt Q06187)
# Assay: BTK IC50 enzyme assay (microfluidic off-chip mobility shift kinase assay)
# Type: biochemical
# Conditions: incubated for 90 min. at 27 C; read-out: Time Dependent BTK Enzyme Assay IC50
# Experimental: The following describes a microfluidic, off-chip mobility shift kinase assay used to measure inherent potency of compounds against BTK enzyme. Compounds described by embodiments of the present invention were assayed using this protocol and the data from the same is recorded in Table 2 within the column labeled: “Time Dependent BTK Enzyme Assay IC50”.
# Stopped reactions were monitored at −2 PSI, −3000 V/−700 V in a LabChip 3000 plate reader from Caliper Life Sciences, a PerkinElmer Company (Hopkinton, Mass.), and the activity was measured by off-chip mobility shift assay measuring the charge/mass difference between substrate and product resulting from peptide phosphorylation. IC50 and efficacy were determined by plotting log [Inhibitor] vs. % Activity in GeneData Screener (Basel, Switzerland). […] I<1 uM and II>1 uM.
# Sequence of full-length human BTK (Q06187 whole entry): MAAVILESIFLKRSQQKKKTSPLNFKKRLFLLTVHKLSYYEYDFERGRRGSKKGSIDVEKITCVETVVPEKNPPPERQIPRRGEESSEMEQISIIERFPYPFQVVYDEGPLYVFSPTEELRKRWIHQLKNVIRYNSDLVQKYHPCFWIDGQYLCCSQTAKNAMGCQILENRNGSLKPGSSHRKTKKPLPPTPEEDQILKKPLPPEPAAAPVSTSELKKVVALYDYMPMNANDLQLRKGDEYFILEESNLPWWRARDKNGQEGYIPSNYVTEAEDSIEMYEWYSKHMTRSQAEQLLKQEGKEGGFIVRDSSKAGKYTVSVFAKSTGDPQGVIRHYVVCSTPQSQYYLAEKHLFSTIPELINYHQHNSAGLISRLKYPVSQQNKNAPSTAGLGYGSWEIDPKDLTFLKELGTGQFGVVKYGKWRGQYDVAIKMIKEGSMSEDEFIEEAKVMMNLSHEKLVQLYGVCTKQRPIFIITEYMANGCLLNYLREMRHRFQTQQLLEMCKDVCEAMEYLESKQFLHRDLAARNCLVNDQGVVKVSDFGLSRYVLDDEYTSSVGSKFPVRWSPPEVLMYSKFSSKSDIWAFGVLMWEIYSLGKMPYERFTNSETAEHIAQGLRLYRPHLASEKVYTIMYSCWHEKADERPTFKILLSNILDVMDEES
row,Compound,IC50 [µM]
1,"C=CC(=O)NC1CC2(C1)CC(Nc1ncnc(N)c1-c1ccc(Oc3ccccc3)cc1)C2 (centres unmarked) [A122, N-(6-((6-amino-5-(4-phenoxyphenyl)pyrimidin-4-v)amino)spiro[3.3]heptan-2-yl)acrylamide]",> 1
2,"C=CC(=O)N1CCC2(CCC2Nc2ncnc(N)c2-c2ccc(Oc3ccccc3)cc2)CC1 (centres unmarked) [A123, 1-(1-((6-amino-5-(4-phenoxyphenyl)pyrimidin-4-yl)amino)-7-azaspiro[3.5]nonan-7-yl)prop-2-en-1-one]",> 1
3,"C=CC(=O)N1CCC(Nc2ncnc(N)c2-c2ccc(Oc3ccccc3)cc2)CC12CCC2 (centres unmarked) [A125, 1-(8-((6-amino-5-(4-phenoxyphenyl)pyrimidin-4-yl)amino)-5-azaspiro[3.5]nonan-5-yl)prop-2-en-1-one]",> 1
4,"CC#CC(=O)c1cccc(CNc2ncnc(N)c2-c2ccc(Oc3ccccc3)cc2)c1 [A141, 1-(3-((6-Amino-5-(4-phenoxyphenyl)-pyrimidin-4-ylamino)-methyl)-phenyl)-but-2-yn-1-one]",< 1
5,"CC=CC(=O)c1cccc(CNc2ncnc(N)c2-c2ccc(Oc3ccccc3)cc2)c1 [A142, 1-(3-((6-Amino-5-(4-phenoxyphenyl)-pyrimidin-4-ylamino)-methyl)-phenyl)-but-2-en-1-one]",< 0.1
6,"CC=CC(=O)[C@H]1CCC[C@H](Nc2ncnc(N)c2-c2ccc(Oc3ccccc3)cc2)C1 [A144, 1-((1S,3S)-3-(6-Amino-5-(4-phenoxyphenyl)-pyrimidin-4-ylamino)-cyclohexyl)-but-2-en-1-one]",< 0.1
7,"CC=CC(=O)[C@H]1CCC[C@@H](Nc2ncnc(N)c2-c2ccc(Oc3ccccc3)cc2)C1 [A146, 1-((1S,3R)-3-(6-Amino-5-(4-phenoxyphenyl)-pyrimidin-4-ylamino)-cyclohexyl)-but-2-en-1-one]",< 0.1
8,"CC#CC(=O)[C@H]1CCC[C@@H](Nc2ncnc(N)c2-c2ccc(Oc3ccccc3)cc2)C1 [A147, 1-((1S,3R)-3-(6-amino-5-(4-phenoxyphenyl)-pyrimidin-4-ylamino)-cyclohexyl)-but-2-yn-1-one]",< 0.1
9,"C=CC(=O)N1CCCC(Nc2nc(N)ncc2-c2ccc(Oc3ccccc3)cc2)C1 (centres unmarked) [A150, 1-(3-((2-amino-5-(4-phenoxyphenyl)pyrimidin-4-yl)amino)piperidin-1-yl)prop-2-en-1-one]",< 1
10,C=CC(=O)N[C@H]1CC[C@@H](Nc2ncnc(N)c2-c2ccc(OCc3ccccc3)cc2)CC1 [A154],> 1
11,"C=CC(=O)Nc1ccc(F)c(Oc2ccnc(N)c2-c2ccc(Oc3ccccc3)cc2)c1 [A158, N-(3-((2-amino-3-(4-phenoxyphenyl)pyridin-4-yl)oxy)-4-fluorophenyl)acrylamide]",< 0.1
12,"CN(C)C/C=C/C(=O)N1CCCC(Nc2ncnc(N)c2-c2ccc(Oc3ccccc3)cc2)C1 (centres unmarked) [A160, (E)-1-(3-((6-amino-5-(4-phenoxyphenyl)pyrimidin-4-yl)amino)piperidin-1-yl)-4-(dimethylamino)but-2-en-1-one]",< 1
13,"C=CC(=O)Nc1cccc(Oc2ncnc(N)c2-c2cccc(S(N)(=O)=O)c2)c1 [A163, N-(3-((6-amino-5-(3-sulfamoylphenyl)pyrimidin-4-yl)oxy)phenyl)acrylamide]",> 1
14,"C=CC(=O)Nc1cccc(Oc2ncnc(N)c2-c2cccc(OC(F)(F)F)c2)c1 [A164, N-(3-((6-amino-5-(3-(trifluoromethoxy)phenyl)pyrimidin-4-yl)oxy)phenyl)acrylamide]",> 1
15,"C=CC(=O)Nc1cccc(Oc2ncnc(N)c2-c2ccc(Oc3ccccc3F)nc2)c1 [A165, N-(3-((6-amino-5-(6-(2-fluorophenoxy)pyridin-3-yl)pyrimidin-4-yl)oxy)phenyl)acrylamide]",< 0.1
16,"C=CC(=O)Nc1cccc(Nc2ncncc2-c2ccc(Oc3ccccc3)cc2)n1 [A167, N-(6-((5-(4-phenoxyphenyl)pyrimidin-4-yl)amino)pyridin-2-yl)acrylamide]",< 0.1
17,"C=CC(=O)N1CCC(O)(CNc2ncnc(N)c2-c2ccc(Oc3cccc(C(F)(F)F)c3)cc2)CC1 [A169, 1-(4-(((6-amino-5-(4-(3-(trifluoromethyl)phenoxy)phenyl)pyrimidin-4-yl)amino)methyl)-4-hydroxypiperidin-1-yl)prop-2-en-1-one]",< 0.1

# Next, values leading:
row,IC50 [µM],Compound
1,< 0.1,"C=CC(=O)[C@H]1CCC[C@H](Nc2ncnc(N)c2-c2ccc(Oc3ccccc3)cc2)C1 [A143, 1-((1S,3S)-3-(6-Amino-5-(4-phenoxyphenyl)-pyrimidin-4-ylamino)-cyclohexyl)-propenone]"
2,< 0.1,"CC#CC(=O)[C@H]1CCC[C@H](Nc2ncnc(N)c2-c2ccc(Oc3ccccc3)cc2)C1 [A145, 1-((1S,3S)-3-(6-Amino-5-(4-phenoxyphenyl)-pyrimidin-4-ylamino)-cyclohexyl)-but-2-yn-1-one]"
3,< 1,"C=CC(=O)Nc1cccc(Oc2ccnc(N)c2-c2ccc(OCc3ccccc3)cc2)c1 [A149, N-(3-((2-amino-3-(4-(benzyloxy)phenyl)pyridin-4-yl)oxy)phenyl)acrylamide]"
4,< 1,"CN(C)C/C=C/C(=O)Nc1cccc(Oc2ccnc(N)c2-c2ccc(OCc3ccccc3)cc2)c1 [A152, (E)-N-(3-((2-amino-3-(4-(benzyloxy)phenyl)pyridin-4-yl)oxy)phenyl)-4-(dimethylamino)but-2-enamide]"
5,< 1,"CN(C)C/C=C/C(=O)N1CCC(CNc2ncnc(N)c2-c2ccc(Oc3ccccc3)cc2)CC1 [A153, (E)-1-(4-(((6-amino-5-(4-phenoxyphenyl)pyrimidin-4-yl)amino)methyl)piperidin-1-yl)-4-(dimethylamino)but-2-en-1-one]"
6,> 1,"C=CC(=O)N1CCC(CNc2ncnc(N)c2-c2ccc(C(=O)Nc3ccccc3)cc2)C1 (centres unmarked) [A155, 4-(4-(((1-acryloylpyrrolidin-3-yl)methyl)amino)-6-aminopyrimidin-5-yl)-N-phenylbenzamide]"
7,< 1,"C=CC(=O)N1CCC(CNc2ncnc(N)c2-c2ccc(OCc3ccccc3)cc2)C1 (centres unmarked) [A156, 1-(3-(((6-amino-5-(4-(benzyloxy)phenyl)pyrimidin-4-yl)amino)methyl)pyrrolidin-1-yl)prop-2-en-1-one]"
8,> 1,"C=CC(=O)N1CCC(CNc2ncnc(N)c2-c2ccc(C(=O)Nc3ccccc3)cc2)CC1 [A157, 4-(4-(((1-acryloylpiperidin-4-yl)methyl)amino)-6-aminopyrimidin-5-yl)-N-phenylbenzamide]"
9,> 1,"C=CC(=O)N[C@H]1CC[C@@H](Nc2ncnc(N)c2-c2ccc(C(=O)Nc3ccccc3)cc2)CC1 [A159, 4-(4-((cis-4-acrylamidocyclohexyl)amino)-6-aminopyrimidin-5-yl)-N-phenylbenzamide]"
10,< 0.1,"C=CC(=O)Nc1ccc(F)c(Oc2ncnc(N)c2-c2ccc(Oc3ccccc3)nc2)c1 [A161, N-(3-((6-amino-5-(6-phenoxypyridin-3-yl)pyrimidin-4-yl)oxy)-4-fluorophenyl)acrylamide]"
11,< 0.1,"C=CC(=O)Nc1cccc(Oc2ncnc(N)c2-c2ccc(Oc3ccccn3)cc2)c1 [A162, N-(3-((6-amino-5-(4-(pyridin-2-yloxy)phenyl)pyrimidin-4-yl)oxy)phenyl)acrylamide]"
12,< 1,"C=CC(=O)Nc1cccc(Oc2ncnc(N)c2-c2ccc(Oc3ccc(F)cc3)nc2)c1 [A166, N-(3-((6-amino-5-(6-(4-fluorophenoxy)pyridin-3-yl)pyrimidin-4-yl)oxy)phenyl)acrylamide]"
